Data as given in article PMC7894522, “Structure Based Design of Bicyclic Peptide Inhibitors of RbAp48” (Angewandte Chemie (International Ed. in English), 2020).
Starred links: 1 amine or outer side, 2 acyl side, 3 side chain; linkers in the order of their positions; H or OH if unused. Positions of bridges follow the written chain, without caps; N, C: chain ends. Residues, ends and D or L forms follow the SMILES beside them. TBMB = c1c(C[*:1])cc(C[*:3])cc1C[*:2]

System: U2OS cells
Assay: Morphological cell painting assay
Type: cell-based
Conditions: U2OS cells, 20 h, 579 parameters, fraction of significantly changed parameters vs DMSO; 10, 3 or 1 µM
Description: Encouraged by the promising results from the pulldown experiment, and in order to get insight into bioactivity and possible mode of action, we analyzed peptide 33 in a morphological cell painting assay. The cell painting assay is a target agnostic assay which determines a cells morphological profile after treatment with a compound of interest and compares it to the profiles of a set of reference compounds. ^[22] By identifying reference compounds with a similar profile a hypothesis of the compounds mode of action can be generated based on their annotated targets. ^[23] U2OS cells were treated with our compound and 579 parameters were analyzed. […] We therefore synthesized a variant modified with an N‐terminal TAT sequence to enhance its permeability (compound 49, see Table 1 and Supplemental Figure 4). ^[24] […] Applying compound 49 to the cell painting assay led to an induction of 5.9 % and the corresponding profile was compared to the set of 3000 reference compounds. […] To validate this hypothesis, we exposed U2OS cells to compound 49 and evaluated the levels of p53 by Western blot. […] The exact mechanism by which the compounds elevate levels of p53 requires further investigation. However, it has previously been shown that the NuRD complex, of which RbAp48 is a core component, is able to deacetylate p53 and thereby modulate its stability. ^[26] The effect is mediated by the MTA family of proteins from which the compounds described here are derived. […]
The described assay follows closely the method described by Bray et al. Initially, 5 µl U2OS medium were added to each well of a 384 -well plate (PerkinElmer CellCarrier -384 Ultra). Subsequently, U2OS cell were seeded with a density of 1600 cells per well in 20 µl medium. The plate was incubated for 10 min at the ambient temperatu re, followed by an a dditional 4 h incubation (37 °C, 5 % CO2). Compound treatment was performed with the Echo 520 acoustic dispenser (Labcyte) at final concentrations of 10 µM, 3 µM or 1 µM. Incubation with compound was performed for 20 h (37 °C, 5 % CO2). Subsequently, mitoc hondria were stained with Mito Tracker Deep Red (Thermo Fisher Scientific, Cat. No. M22426). The Mito Tracker Deep Red stock solution (1 mM) was diluted to a final concentration of 100 nM in prewarmed medium. The medium was removed fr om the plate leaving 1 0 µl residual volume and 25 µl of the Mito Tracker solution were added to each well. 22 The plate was incubated for 30 min in darkness (37 °C, 5 % CO2). To fix the cells 7 µl of 18.5 % formaldehyde in PBS were added, resulting in a fi nal formaldehyde conce ntration of 3.7 %. Subsequently, the plate was incubated for another 20 min in darkness (RT) and washed three times with 70 µl of PBS. (Biotek Washer Elx405). Cells were permeabilized by addition of 25 µl 0.1 % Triton X -100 to each well, followed by 15 min incubation (RT) in darkness. The cells were washed three times with PBS leaving a final volume of 10 µl. To each well 25 µl of a staining solution were added, which contains 1 % BSA, 5 µl/mL Phalloidin (Thermo Fisher Scientific, A123 81), 25 µg/ml Concanav alin A (Thermo Fisher Scientific, Cat. […]
conjugate (Thermo Fisher Scientific, Cat. No. W11262) and […] SYTO 14 solution (Thermo Fisher Scientific, Cat. No. S7576). The plate is incubated for 30 min (RT) in darkness and washed three times with 70 µl PBS. After the final washing step the PBS was not aspirated. The plates were sealed and centrifuged for 1 min at 500 rpm.
The plates were prepare d in triplicates with shifted layouts to reduce plate effects and imaged using a Micro XL High-Content Screening System (Molecular Devices) in 5 channels (DAPI: Ex350 -400/ Em410- […]
The generated images were processed with the CellProfiler package (https://cellprofiler.org/, version 3.0.0) on a computing cluster of the Max Planck Society to extract 1716 cell features (parameters) per microscope site. The data was then further aggregated as medians per well (9 sites -> 1 well), then […]

CC(=O)N[C@H]1CSCc2cc3cc(c2)CSC[C@@H](C(=O)N[C@@H](C)C(N)=O)NC(=O)[C@@H]2CCCN2C(=O)[C@H](CCCCN)NC(=O)[C@H](Cc2ccc(O)cc2)NC(=O)[C@@H]2CCCN2C(=O)[C@H](CCCNC(=N)N)NC(=O)[C@H](CCCNC(=N)N)NC(=O)[C@H](C)NC(=O)[C@H](CSC3)NC(=O)[C@H](CCCNC(=N)N)NC(=O)[C@H](CCCCN)NC(=O)[C@H]([C@@H](C)O)NC1=O [Peptide 33] (Ac-CTKRCARRPYKPCA-NH2; linker 1-5-13 via TBMB)
induction: no induction
